Laboratory results as given in US9512084B2, “Amino pyrimidine derivatives” (Novartis AG, priority 2013, dated 2016).

Columns and labels:
[1] = molecular target: Btk (Rattus norvegicus, UniProt Q5S255); assay: Inhibition of Btk activity in blood (in vitro B cell activation assay, CD86, rat whole blood); assay type: cell-based; conditions: Lewis rat whole blood diluted to 50%, anti-rat IgM + rat IL-4, 24 hours, CD86 on CD45RA positive B cells
Procedure: Alternatively, the inhibitory activity of the present compounds in blood was assessed in the following in vitro B cell activation assay. Whole blood was collected from the abdominal aorta of anaesthetized adult male Lewis rats and was anticoagulated with 100 U/ml sodium heparin. Blood was then diluted to 50% with high glucose DMEM (Amimed) supplemented with […] penicillin, […], 2 mM L-glutamin, 50 mg/ml dextran 40 and 5% FCS (Fetaclone I, Gibco). Then, 190 μl prediluted blood was mixed in 96 well U-bottomed microtiter plates (Nunc) with 10 μl of serial dilutions of test compounds in DMSO. […] Activation of B cells was measured by flow cytometry after staining for the B cell subset with PE-Cy5-labeled anti-ratCD45RA (Beckton-Dickinson) and for the activation marker CD86 (PE-labeled anti-rat CD86 (Beckton-Dickinson). All staining procedures were performed at RT for 30 min in the dark in 96-deep well V-bottomed microtiter plates (Corning) with BD Lysing Solution (Beckton-Dickinson).
Cytometric data was acquired on a FACScalibur flow cytometer (BD Biosciences) and the subpopulation of lymphocytes were gated according to size and granularity and further analyzed for expression of CD45RA and the activation markers. Data for the inhibition of B cell activation were calculated from the percentage of cells positively stained for activation markers within the CD45RA positive population.

[2] = molecular target: full-length human recombinant BTK (Homo sapiens (Human), UniProt Q06187); assay: Inhibition of Btk enzymatic activity (biochemical enzyme assay, Caliper); conditions: 6.4 nM enzyme solution, 164 μM ATP solution, 30° C., 60 minutes
Sequence of full-length human recombinant BTK (Q06187 whole entry): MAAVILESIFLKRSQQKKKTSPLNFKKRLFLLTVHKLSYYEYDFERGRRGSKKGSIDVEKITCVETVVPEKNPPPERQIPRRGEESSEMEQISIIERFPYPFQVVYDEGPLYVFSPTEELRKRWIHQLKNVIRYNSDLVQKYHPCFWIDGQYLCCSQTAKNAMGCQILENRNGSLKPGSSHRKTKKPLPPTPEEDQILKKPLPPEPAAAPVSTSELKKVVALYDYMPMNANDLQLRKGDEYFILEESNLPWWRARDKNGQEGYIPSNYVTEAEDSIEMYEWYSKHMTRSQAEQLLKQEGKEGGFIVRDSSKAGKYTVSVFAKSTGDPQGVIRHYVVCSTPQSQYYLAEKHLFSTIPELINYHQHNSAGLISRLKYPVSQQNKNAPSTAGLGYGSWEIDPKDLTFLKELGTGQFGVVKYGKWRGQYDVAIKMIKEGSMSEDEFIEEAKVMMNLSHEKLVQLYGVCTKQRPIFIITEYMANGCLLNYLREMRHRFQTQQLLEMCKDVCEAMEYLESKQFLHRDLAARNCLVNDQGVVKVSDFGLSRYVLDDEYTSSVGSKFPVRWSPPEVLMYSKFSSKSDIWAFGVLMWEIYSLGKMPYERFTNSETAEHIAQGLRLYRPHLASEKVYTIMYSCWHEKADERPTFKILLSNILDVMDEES
Procedure: The inhibitory activity of the present compounds against Btk was assessed in a biochemical enzyme assay. […] The assay plates were prepared by addition of 50 nl per well of compound solution in 90% DMSO. […] Kinase reactions were analyzed on a Caliper LC3000 workstation by separating phosphorylated and unphosphorylated peptides and kinase activities were calculated from the amounts of newly formed phospho-peptide.

Sequence of Btk (Q5S255 1-660): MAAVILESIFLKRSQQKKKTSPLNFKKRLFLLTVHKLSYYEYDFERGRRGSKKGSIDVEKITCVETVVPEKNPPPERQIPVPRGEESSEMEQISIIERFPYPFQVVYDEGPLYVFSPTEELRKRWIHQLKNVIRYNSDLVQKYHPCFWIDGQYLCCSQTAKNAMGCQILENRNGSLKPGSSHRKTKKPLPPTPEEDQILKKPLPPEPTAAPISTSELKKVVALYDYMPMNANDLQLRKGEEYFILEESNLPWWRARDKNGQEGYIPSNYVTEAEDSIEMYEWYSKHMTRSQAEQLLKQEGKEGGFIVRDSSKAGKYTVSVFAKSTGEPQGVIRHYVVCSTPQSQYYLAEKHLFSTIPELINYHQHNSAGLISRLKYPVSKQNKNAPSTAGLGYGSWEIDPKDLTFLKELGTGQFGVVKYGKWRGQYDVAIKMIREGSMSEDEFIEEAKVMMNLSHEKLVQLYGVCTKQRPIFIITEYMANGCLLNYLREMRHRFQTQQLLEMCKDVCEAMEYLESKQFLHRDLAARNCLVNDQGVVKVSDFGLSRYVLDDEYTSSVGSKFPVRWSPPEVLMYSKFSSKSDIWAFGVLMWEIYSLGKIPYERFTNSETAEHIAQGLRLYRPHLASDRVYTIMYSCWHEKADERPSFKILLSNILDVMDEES

SMILES | IC50 [1] [nM] | IC50 [2] [nM]
C/C=C/C(=O)N1CC(Oc2c(N)ncnc2-c2cc(F)cc(NC(=O)c3ccc(C4CC4)cc3F)c2C)C1 [Example 2, (E)-N-(3-(6-Amino-5-((1-(but-2-enoyl)azetidin-3-yl)oxy)pyrimidin-4-yl)-5-fluoro-2-methylphenyl)-4-cyclopropyl-2-fluorobenzamide] | 1110 | 38
C#CC(=O)N1CC(Oc2c(N)ncnc2-c2cc(F)cc(NC(=O)c3ccc(C4CC4)cc3F)c2C)C1 [Example 3, N-(3-(6-Amino-5-((1-propioloylazetidin-3-yl)oxy)pyrimidin-4-yl)-5-fluoro-2-methylphenyl)-4-cyclopropyl-2-fluorobenzamide] | 124 | 1
CC#CC(=O)N1CC(Oc2c(N)ncnc2-c2cc(F)cc(NC(=O)c3ccc(C4CC4)cc3F)c2C)C1 [Example 4, N-(3-(6-Amino-5-((1-(but-2-ynoyl)azetidin-3-yl)oxy)pyrimidin-4-yl)-5-fluoro-2-methylphenyl)-4-cyclopropyl-2-fluorobenzamide] | 376 | 9
COC/C=C/C(=O)N(C)CCOc1c(N)ncnc1-c1cc(F)cc(NC(=O)c2ccc(C3CC3)cc2F)c1C [Example 9, (E)-N-(3-(6-Amino-5-(2-(4-methoxy-N-methylbut-2-enamido)ethoxy)pyrimidin-4-yl)-5-fluoro-2-methylphenyl)-4-cyclopropyl-2-fluorobenzamide] | 240 | 10
Cc1c(NC(=O)c2ccc(C3CC3)cc2F)cc(F)cc1-c1ncnc(N)c1OCCN(C)C(=O)C1CO1 (stereo not shown) [Example 11, N-(2-((4-Amino-6-(3-(4-cyclopropyl-2-fluorobenzamido)-5-fluoro-2-methylphenyl)pyrimidin-5-yl)oxy)ethyl)-N-methyloxirane-2-carboxamide] | 323 | 10
C=CC(=O)N(C)CCOc1c(N)ncnc1-c1cccc(-n2ccc3cc(C4CC4)cc(F)c3c2=O)c1 [Example 12, N-(2-((4-Amino-6-(3-(6-cyclopropyl-8-fluoro-1-oxoisoquinolin-2(1H)-yl)phenyl)pyrimidin-5-yl)oxy)ethyl)-N-methylacrylamide] | 459 | 12
C=CC(=O)NC1(COc2c(N)ncnc2-c2cc(F)cc(NC(=O)c3ccc(C4CC4)cc3F)c2C)CC1 [Example 16, N-(3-(5-((1-Acrylamidocyclopropyl)methoxy)-6-aminopyrimidin-4-yl)-5-fluoro-2-methylphenyl)-4-cyclopropyl-2-fluorobenzamide] | 558 | 15
C=CC(=O)N[C@@H](C)COc1c(N)ncnc1-c1cc(F)cc(NC(=O)c2ccc(C3CC3)cc2F)c1C [Example 17, (S)—N-(3-(5-(2-Acrylamidopropoxy)-6-aminopyrimidin-4-yl)-5-fluoro-2-methylphenyl)-4-cyclopropyl-2-fluorobenzamide] | 246 | 5
CC#CC(=O)N[C@@H](C)COc1c(N)ncnc1-c1cc(F)cc(NC(=O)c2ccc(C3CC3)cc2F)c1C [Example 18, (S)—N-(3-(6-Amino-5-(2-(but-2-ynamido)propoxy)pyrimidin-4-yl)-5-fluoro-2-methylphenyl)-4-cyclopropyl-2-fluorobenzamide] | 419 | 1
C=CC(=O)N(C)[C@@H](C)COc1c(N)ncnc1-c1cc(F)cc(NC(=O)c2ccc(C3CC3)cc2F)c1C [Example 19, (S)—N-(3-(6-Amino-5-(2-(N-methylacrylamido)propoxy)pyrimidin-4-yl)-5-fluoro-2-methylphenyl)-4-cyclopropyl-2-fluorobenzamide] | 136 | 16
CC#CC(=O)N(C)[C@@H](C)COc1c(N)ncnc1-c1cc(F)cc(NC(=O)c2ccc(C3CC3)cc2F)c1C [Example 20, (S)—N-(3-(6-Amino-5-(2-(N-methylbut-2-ynamido)propoxy)pyrimidin-4-yl)-5-fluoro-2-methylphenyl)-4-cyclopropyl-2-fluorobenzamide] | 330 | 5
C=CC(=O)N1C[C@@H](OC)C[C@H]1COc1c(N)ncnc1-c1cc(F)cc(NC(=O)c2ccc(C3CC3)cc2F)c1C [Example 29, N-(3-(5-(((2S,4S)-1-Acryloyl-4-methoxypyrrolidin-2-yl)methoxy)-6-aminopyrimidin-4-yl)-5-fluoro-2-methylphenyl)-4-cyclopropyl-2-fluorobenzamide] | 134 | 4
CC#CC(=O)N1C[C@@H](OC)C[C@H]1COc1c(N)ncnc1-c1cc(F)cc(NC(=O)c2ccc(C3CC3)cc2F)c1C [Example 30, N-(3-(6-Amino-5-(((2S,4S)-1-(but-2-ynoyl)-4-methoxypyrrolidin-2-yl)methoxy)pyrimidin-4-yl)-5-fluoro-2-methylphenyl)-4-cyclopropyl-2-fluorobenzamide] | 222 | 6
C#CC(=O)N1CC[C@H]1COc1c(N)ncnc1-c1cc(F)cc(NC(=O)c2ccc(C3CC3)cc2F)c1C [Example 34, (S)—N-(3-(6-Amino-5-((1-propioloylazetidin-2-yl)methoxy)pyrimidin-4-yl)-5-fluoro-2-methylphenyl)-4-cyclopropyl-2-fluorobenzamide] | 208 | 2

Now those with a lower IC50 [1], led by results:

IC50 [1] [nM] | IC50 [2] [nM] | SMILES
29 | 1 | C=CC(=O)N(CCF)CCOc1c(N)ncnc1-c1cc(F)cc(NC(=O)c2ccc(C3CC3)cc2F)c1C [Example 15, N-(3-(6-Amino-5-(2-(N-(2-fluoroethyl)acrylamido)ethoxy)pyrimidin-4-yl)-5-fluoro-2-methylphenyl)-4-cyclopropyl-2-fluorobenzamide]
57 | 1 | CC#CC(=O)N1CCC[C@H]1COc1c(N)ncnc1-c1cc(F)cc(NC(=O)c2ccc(C3CC3)cc2F)c1C [Example 23, (S)—N-(3-(6-Amino-5-((1-(but-2-ynoyl)pyrrolidin-2-yl)methoxy)pyrimidin-4-yl)-5-fluoro-2-methylphenyl)-4-cyclopropyl-2-fluorobenzamide]
32 | 0.5 | C=CC(=O)N1CCC[C@H]1COc1c(N)ncnc1-c1cc(F)cc(N2CCc3cc(C4CC4)ccc3C2=O)c1CO [Example 24, (S)-2-(3-(5-((1-Acryloylpyrrolidin-2-yl)methoxy)-6-aminopyrimidin-4-yl)-5-fluoro-2-(hydroxymethyl)phenyl)-6-cyclopropyl-3,4-dihydroisoquinolin-1(2H)-one]
65 | 1 | C=CC(=O)N(C)CCOc1c(N)ncnc1-c1cc(F)cc(N2CCc3cc(C4CC4)ccc3C2=O)c1CO [Example 25, N-(2-((4-Amino-6-(3-(6-cyclopropyl-1-oxo-3,4-dihydroisoquinolin-2(1H)-yl)-5-fluoro-2-(hydroxymethyl)phenyl)pyrimidin-5-yl)oxy)ethyl)-N-methylacrylamide]
51 | 0.4 | C=CC(=O)N1C[C@H](OC)C[C@H]1COc1c(N)ncnc1-c1cc(F)cc(NC(=O)c2ccc(C3CC3)cc2F)c1C [Example 26, N-(3-(5-(((2S,4R)-1-Acryloyl-4-methoxypyrrolidin-2-yl)methoxy)-6-aminopyrimidin-4-yl)-5-fluoro-2-methylphenyl)-4-cyclopropyl-2-fluorobenzamide]
76 | 3 | CC#CC(=O)N1C[C@H](OC)C[C@H]1COc1c(N)ncnc1-c1cc(F)cc(NC(=O)c2ccc(C3CC3)cc2F)c1C [Example 27, N-(3-(6-Amino-5-(((2S,4R)-1-(but-2-ynoyl)-4-methoxypyrrolidin-2-yl)methoxy)pyrimidin-4-yl)-5-fluoro-2-methylphenyl)-4-cyclopropyl-2-fluorobenzamide]
33 | 1 | C=CC(=O)N1C[C@H](OC)C[C@H]1COc1c(N)ncnc1-c1cc(F)cc(N2CCc3cc(C4CC4)ccc3C2=O)c1CO [Example 28, 2-(3-(5-(((2S,4R)-1-Acryloyl-4-methoxypyrrolidin-2-yl)methoxy)-6-aminopyrimidin-4-yl)-5-fluoro-2-(hydroxymethyl)phenyl)-6-cyclopropyl-3,4-dihydroisoquinolin-1(2H)-one]
25 | 2 | C=CC(=O)N1C[C@H](F)C[C@H]1COc1c(N)ncnc1-c1cc(F)cc(NC(=O)c2ccc(C3CC3)cc2F)c1C [Example 31, N-(3-(5-(((2S,4R)-1-Acryloyl-4-fluoropyrrolidin-2-yl)methoxy)-6-aminopyrimidin-4-yl)-5-fluoro-2-methylphenyl)-4-cyclopropyl-2-fluorobenzamide]
55 | 4 | CC#CC(=O)N1C[C@H](F)C[C@H]1COc1c(N)ncnc1-c1cc(F)cc(NC(=O)c2ccc(C3CC3)cc2F)c1C [Example 32, N-(3-(6-Amino-5-(((2S,4R)-1-(but-2-ynoyl)-4-fluoropyrrolidin-2-yl)methoxy)pyrimidin-4-yl)-5-fluoro-2-methylphenyl)-4-cyclopropyl-2-fluorobenzamide]
